# In article doi:10.1101/2024.02.15.580468v1, “Morphing Cholinesterase Inhibitor Amiridine into Multipotent Drugs for the Treatment of Alzheimer’s Disease” (biorxiv, 2024):
# Read-outs that look alike come from different tables or passages of the source.
# Legend:
# [1] = in vitro; parameters: MTT viability assay, HepG2 cells; details: human, hepg2 cells; read-out: HepG2 IC50
# Description: (§1) The cytotoxic profile of 5–7 was carried through the use of the MTT (3-(4,5-dimethylthiazol-2-yl)-2,5-diphenyltetrazolium bromide) assay on human neuroblastoma (SH-SY5Y) and hepatocellular carcinoma (HepG2) cell lines, following established protocols. The cytotoxicity was assessed on SH-SY5Y cells in undifferentiated and in differentiated form. The data obtained from the measurements on the undifferentiated SH-SY5Y and HepG2 cells are summarized in Table 1 for 5c-d, 7c and 7g, as well as for the reference compounds amiridine hydrochloride and THA. Additional data can be found in Supplementary Information (Table S2 and Fig. S1). The both cell lines were cultured according to ECACC recommended conditions and seeded into 96-well plates in 100 µL and density of 8000 per well. For evaluation of cytotoxicity of the differentiated form the SH-SY5Y cells also underwent 9-day differentiation protocol into mature neurons according to Riegerová et al .. The tested compounds were dissolved in DMSO (Sigma Aldrich) or in phosphate buffer saline (PBS, Sigma Aldrich) and subsequently in the growth medium - high glucose Dulbecco’s Modified Eagle’s medium (DMEM; Sigma-Aldrich, D6429). […] Then, the differentiated SH-SY5Y cells were treated with concentrations corresponding to IC50 values obtained from the cytotoxicity measurement using undifferentiated SH-SY5Y cells. Cells were exposed to a tested compound for 24 h. Then the medium was replaced by a medium containing 10 μM of MTT and cells were allowed to produce formazan for another approximately 3 h under surveillance. Thereafter, medium was aspirated and purple crystals of MTT formazan were dissolved in 100 μL DMSO under shaking. Cell viability was assessed spectrophotometrically by the amount of formazan produced. Absorbance was measured at 570 nm with 650 nm reference wavelength on Spark (Tecan Group Ltd, Switzerland). The IC50 value was then calculated from the control-subtracted triplicates using non-linear regression (four parameters) of GraphPad Prism 9 software. Final IC50 and SEM values were obtained as a mean of three independent measurements.
# [2] = in vitro; parameters: MTT viability assay, undifferentiated SH-SY5Y cells; details: human, undifferentiated sh-sy5y cells, read-out: SH-SY5Y IC50
# Description: as §1
# [3] = in vitro; parameters: PAMPA blood-brain barrier permeability, effective permeability Pe; details: PAMPA-BBB Pe
# Text: page 4 / Table S1. Inhibition activities of 5–7 and reference compounds (amiridine hydrochloride and THA). hAChE ± SEM^a hBChE ± SEM^a / Pe (10^-6 cm.s^-1)
# [4] = target: T1, hBChE (human serum / plasmatic butyrylcholinesterase) (Homo sapiens, UniProt P06276); assay: biochemical; parameters: modified Ellman assay, cholinesterase activity, absorbance at 412 nm
# T1 construct: gene BCHE; native enzyme from human plasma/serum, purchased from Sigma-Aldrich
# T1 sequence (P06276 29-602): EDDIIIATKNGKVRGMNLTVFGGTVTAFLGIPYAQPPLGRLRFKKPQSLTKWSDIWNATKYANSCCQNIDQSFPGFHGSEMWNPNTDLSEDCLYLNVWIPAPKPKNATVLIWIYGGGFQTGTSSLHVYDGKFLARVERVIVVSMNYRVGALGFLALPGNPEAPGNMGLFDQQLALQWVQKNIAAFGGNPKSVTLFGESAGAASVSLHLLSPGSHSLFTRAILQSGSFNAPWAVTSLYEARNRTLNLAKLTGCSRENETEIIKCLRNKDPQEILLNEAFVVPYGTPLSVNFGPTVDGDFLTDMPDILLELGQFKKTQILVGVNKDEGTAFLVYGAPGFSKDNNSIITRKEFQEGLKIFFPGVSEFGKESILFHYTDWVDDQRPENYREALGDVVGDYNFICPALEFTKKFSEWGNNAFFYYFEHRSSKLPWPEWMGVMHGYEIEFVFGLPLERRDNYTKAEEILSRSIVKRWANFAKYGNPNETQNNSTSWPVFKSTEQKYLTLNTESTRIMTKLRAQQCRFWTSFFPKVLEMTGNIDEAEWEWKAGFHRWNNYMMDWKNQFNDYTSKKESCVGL
# Description: (§2) The inhibitory activities of 5–7 and all the reference compounds were determined using modified Ellman’s method against human recombinant AChE (hAChE, E.C. 3.1.1.7, purchased from Sigma-Aldrich, Prague, Czech Republic) and human plasmatic BChE (hBChE, E.C. 3.1.1.8, purchased from Sigma-Aldrich, Prague, Czech Republic). The results are expressed as IC50 (the concentration of the compound that is required to reduce 50% of cholinesterase activity). Other used compounds – phosphate buffer solution (PBS, pH = 7.4), 5,5’-dithio-bis(2-nitrobenzoic) acid (Ellman’s reagent, DTNB), acetylthiocholine (ATCh) and butyrylthiocholine (BTCh) were also commercially available and were purchased from Sigma-Aldrich (Prague, Czech Republic). During the measurement, 96-well microplates from polystyrene (ThermoFisher Scientific, Waltham, MA, USA) were used. The solutions of corresponding enzyme in PBS were prepared up to final activity 0.002 U/µL. The assay medium (100 µL) consisted of cholinesterase (10 µL), DTNB (20 µL of 0.01 M solution) and PBS (40 µL of 0.1 M solution). The solutions of the tested compounds (10 µL of different concentrations) were pre- incubated for 5 minutes in the assay medium and then solution of substrate (20 µL of 0.01 M ATCh or BTCh iodide solution) was added to initiate the reaction. The increase of absorbance was measured at 412 nm using Multimode microplate reader Synergy 2 (BioTek Inc., Winooski, VT, USA). For the calculation of the resulting measured activity (the percentage of inhibition I) following formula was used: [drawing 1] where ΔAi indicates absorbance change provided by adequate enzyme exposed to corresponding inhibitor and ΔA0 indicates absorbance change when a solution of PBS was added instead of a solution of inhibitor. Software Microsoft Excel (Redmont, WA, USA) and GraphPad Prism version 5.02 for Windows (GraphPad Software, San Diego, CA, USA) were used for the statistical data evaluation. ChEs are enzymes responsible for the hydrolysis and metabolism of various endogenous and exogenous substrates, that are broadly studied in association with disease conditions like myasthenia gravis or AD. The primary attention in the development of AD drugs has been paid to AChE inhibitors. Nevertheless, there is growing interest in nonselective or BChE-selective inhibitors due to the compensatory role of BChE when AChE levels are depleted during the progression of AD [23]. Selective BChE inhibitors may be beneficial for patients in moderate-to-severe stages of AD [23, 24]. […] Accordingly, we assessed the inhibition activities of these novel compounds against human recombinant AChE (hAChE) and human serum BChE (hBChE) following a modified spectrophotometric protocol developed by Ellman et al.. […] Complete data are available in the Supplementary Information (Table S1), including the inhibition percentages for all derivatives. Amiridine hydrochloride (amiridine.HCl) and tacrine (THA) were used as reference compounds. […] Only a superficial structure-activity relationship for AChE inhibition can be drawn from the obtained data. […] The presence of any substituent on the benzothiazole core enhanced anti-AChE activity, with the best-tolerated position for the substituent being 6 for derivatives with halogen atoms (7b-d with bromine or 7g-h with [compound left out]. h
# [5] = target: T2, hAChE (human recombinant acetylcholinesterase) (Homo sapiens, UniProt P22303); assay: biochemical; parameters: modified Ellman assay, cholinesterase activity, absorbance at 412 nm
# T2 construct: gene ACHE; recombinant enzyme, purchased from Sigma-Aldrich
# T2 sequence (P22303 32-614): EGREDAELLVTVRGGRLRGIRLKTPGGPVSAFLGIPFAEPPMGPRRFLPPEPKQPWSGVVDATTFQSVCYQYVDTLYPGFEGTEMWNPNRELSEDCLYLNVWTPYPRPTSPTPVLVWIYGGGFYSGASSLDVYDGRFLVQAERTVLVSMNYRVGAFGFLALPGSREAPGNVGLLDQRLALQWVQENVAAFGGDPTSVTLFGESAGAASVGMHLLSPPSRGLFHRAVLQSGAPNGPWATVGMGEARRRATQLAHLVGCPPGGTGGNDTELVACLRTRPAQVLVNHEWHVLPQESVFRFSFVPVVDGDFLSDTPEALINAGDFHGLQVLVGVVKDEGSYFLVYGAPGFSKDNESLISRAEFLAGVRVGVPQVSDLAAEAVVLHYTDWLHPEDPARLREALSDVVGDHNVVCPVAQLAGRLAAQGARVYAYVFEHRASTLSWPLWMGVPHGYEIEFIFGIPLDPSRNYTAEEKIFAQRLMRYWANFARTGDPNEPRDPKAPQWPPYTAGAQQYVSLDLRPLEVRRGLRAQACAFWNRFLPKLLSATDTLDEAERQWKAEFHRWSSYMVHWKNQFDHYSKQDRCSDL
# Description: as §2
# [6] = in vitro; parameters: PAMPA blood-brain barrier permeability, effective permeability Pe; details: PAMPA-BBB Pe; remark: listed apart in the source
# Text: page 5 / Table S2. Cytotoxicity profiles of 5–7 on SH-SY5Y cell line and predictions to BBB penetration by PAMPA results. / Pe (10^-6 cm.s^-1)
# [7] = target: T1, hBChE (human serum / plasmatic butyrylcholinesterase); assay: modified Ellman assay, […] nm; assay type: biochemical
SMILES,CC50 at 24 h [1] [µM],CC50 at 24 h [2] [µM],Papp [3] [×10⁻⁶ cm/s],inhibition at 1 µM [4] [%],inhibition at 1 µM [5] [%],Papp [6] [×10⁻⁶ cm/s],IC50 [7] [µM]
O=C(CNC12CC3CC(CC(C3)C1)C2)Nc1c2c(nc3c1CCC3)CCCC2 [5a],67.9 ± 1.12,74 ± 2.8,23.4 ± 1.86,14 ± 1.75,2.83 ± 0.49,–,–
CC12CC3CC(C)(C1)CC(NCC(=O)Nc1c4c(nc5c1CCC5)CCCC4)(C3)C2 [5b],19.5 ± 1.72,31 ± 2.76,–,18.6 ± 0.65,9.13 ± 0.48,7.63 ± 0.09,–
"Clc1nc2ccccc2s1 [7a, 2-chlorobenzothiazole]",≥ 200,72.3 ± 6.89,–,7.19 ± 0.91,1.46 ± 0.17,20.6 ± 0.44,–
"O=C(CNc1nc2ccc(Br)cc2s1)Nc1c2c(nc3c1CCC3)CCCC2 [7b, 2-[(6-bromo-1,3-benzothiazol-2-yl)amino]-N-{1H,2H,3H,5H,6H,7H,8H-cyclopenta[b]quinolin-9-yl}acetamide]",≥ 200,≥ 200,–,10.83 ± 0.09,18.5 ± 0.37,3.74 ± 0.36,–
"O=C(CNc1nc2cc(Br)ccc2s1)Nc1c2c(nc3c1CCC3)CCCC2 [7c, 2-[(5-bromo-1,3-benzothiazol-2-yl)amino]-N-{1H,2H,3H,5H,6H,7H,8H-cyclopenta[b]quinolin-9-yl}acetamide]",21.61 ± 0.21,17.7 ± 2.34,–,25 ± 2.39,15.7 ± 1.17,2.13 ± 1.04,4.9 ± 0.4
"O=C(CNc1nc2c(Br)cccc2s1)Nc1c2c(nc3c1CCC3)CCCC2 [7d, 2-[(4-bromo-1,3-benzothiazol-2-yl)amino]-N-{1H,2H,3H,5H,6H,7H,8H-cyclopenta[b]quinolin-9-yl}acetamide]",14.5 ± 1.84,111 ± 5.6,–,6.73 ± 0.45,1.8 ± 0.33,2.62,–
"N#Cc1ccc2sc(NCC(=O)Nc3c4c(nc5c3CCC5)CCCC4)nc2c1 [7e, 2-[(5-cyano-1,3-benzothiazol-2-yl)amino]-N-{1H,2H,3H,5H,6H,7H,8H-cyclopenta[b]quinolin-9-yl}acetamide]",26.4 ± 1.82,77.4 ± 4.54,–,13.9 ± 0.6,13.3 ± 0.57,13.9 ± 1.26,–
"O=C(CNc1nc2cc(Cl)ccc2s1)Nc1c2c(nc3c1CCC3)CCCC2 [7g, 2-[(5-chloro-1,3-benzothiazol-2-yl)amino]-N-{1H,2H,3H,5H,6H,7H,8H-cyclopenta[b]quinolin-9-yl}acetamide]",≥ 200,98.2 ± 5.74,–,26.5 ± 1.45,11.9 ± 0.74,2.8 ± 0.79,11 ± 1.2
"O=C(CNc1nc2ccc([N+](=O)[O-])cc2s1)Nc1c2c(nc3c1CCC3)CCCC2 [7i, N-{1H,2H,3H,5H,6H,7H,8H-cyclopenta[b]quinolin-9-yl}-2-[(6-nitro-1,3-benzothiazol-2-yl)amino]acetamide]",≥ 200,91.3 ± 11,–,0.93 ± 0.08,7.98 ± 0.99,4.89 ± 1.5,–
"O=C(CNc1nc2cc([N+](=O)[O-])ccc2s1)Nc1c2c(nc3c1CCC3)CCCC2 [7j, N-{1H,2H,3H,5H,6H,7H,8H-cyclopenta[b]quinolin-9-yl}-2-[(5-nitro-1,3-benzothiazol-2-yl)amino]acetamide]",25.83 ± 0.25,93.7 ± 5.38,–,8.03 ± 1.37,8.2 ± 0.41,1.83 ± 0.54,–
"O=C(CNc1nc2cccc([N+](=O)[O-])c2s1)Nc1c2c(nc3c1CCC3)CCCC2 [7k, N-{1H,2H,3H,5H,6H,7H,8H-cyclopenta[b]quinolin-9-yl}-2-[(7-nitro-1,3-benzothiazol-2-yl)amino]acetamide]",≥ 200,51 ± 8.56,–,4.47 ± 0.58,9.62 ± 0.41,1.12 ± 0.62,–
"CSc1ccc2nc(NCC(=O)Nc3c4c(nc5c3CCC5)CCCC4)sc2c1 [7l, N-{1H,2H,3H,5H,6H,7H,8H-cyclopenta[b]quinolin-9-yl}-2-{[6-(methylsulfanyl)-1,3-benzothiazol-2-yl]amino}acetamide]",≥ 200,173 ± 17.6,–,6.05 ± 1.77,7.56 ± 0.38,2.65 ± 0.01,–
"Cc1c(C)c2c(c(C)c1O)CCC(C)(C(=O)NCC(=O)Nc1c3c(nc4c1CCC4)CCCC3)O2 (stereo not drawn) [compound 6, N-{1H,2H,3H,5H,6H,7H,8H-cyclopenta[b]quinolin-9-yl}-2-[(6-hydroxy-2,5,7,8-tetramethyl-3,4-dihydro-2H-1-benzopyran-2-yl)formamido]acetamide]",–,≥ 200,–,21.5 ± 0.94,3.95 ± 0.25,15.9 ± 0.38,–
